From the CheMixHub viscosity set
Where “and” joins values, the source holds several entries; their conditions need not be identical. Identical values can stand only once. ± gives the uncertainty stated by the source.

Experiment: xn = mol fraction of the nth substance listed

COc1ccccc1 + C1COCCO1
viscosity [mPa·s]
Details | 293.15 K | 298.15 K | 303.15 K | 308.15 K | 313.15 K | 323.15 K
101 kPa, x1 = 0.0973 | – | 1.154 ± 0.011 | 1.063 ± 0.01 | 0.9679 ± 0.0094 | 0.9021 ± 0.0089 | –
101 kPa, x1 = 0.1993 | – | 1.136 ± 0.011 | 1.04 ± 0.0099 | 0.9633 ± 0.0093 | 0.8956 ± 0.0089 | –
101 kPa, x1 = 0.3019 | – | 1.105 ± 0.01 | 1.021 ± 0.0097 | 0.9435 ± 0.0092 | 0.8729 ± 0.0087 | –
101 kPa, x1 = 0.4003 | – | 1.094 ± 0.01 | 1.011 ± 0.0096 | 0.9342 ± 0.0091 | 0.8659 ± 0.0087 | –
101 kPa, x1 = 0.4999 | – | – | – | 0.9209 ± 0.009 | 0.854 ± 0.0086 | –
101 kPa, x1 = 0.5976 | – | 1.06 ± 0.0099 | 0.983 ± 0.0094 | 0.9122 ± 0.009 | 0.8465 ± 0.0086 | –
101 kPa, x1 = 0.7024 | – | – | 0.9723 ± 0.0094 | 0.9001 ± 0.0089 | 0.8338 ± 0.0085 | –
101 kPa, x1 = 0.7992 | – | – | 0.9564 ± 0.0092 | 0.8957 ± 0.0089 | 0.8226 ± 0.0085 | –
101 kPa, x1 = 0.9003 | – | 1.019 ± 0.0096 | 0.9451 ± 0.0092 | 0.8765 ± 0.0087 | 0.8129 ± 0.0084 | –
101.3 kPa, x1 = 0.1191 | 1.251 ± 0.15 | – | 1.062 ± 0.13 | – | 0.916 ± 0.11 | 0.799 ± 0.096
101.3 kPa, x1 = 0.2422 | 1.218 ± 0.15 | – | 1.037 ± 0.12 | – | 0.898 ± 0.11 | 0.785 ± 0.094
101.3 kPa, x1 = 0.3646 | 1.223 ± 0.15 | – | 1.014 ± 0.12 | – | 0.879 ± 0.11 | 0.77 ± 0.093
101.3 kPa, x1 = 0.4786 | 1.195 ± 0.14 | – | 1.018 ± 0.12 | – | 0.882 ± 0.11 | 0.76 ± 0.091
101.3 kPa, x1 = 0.6021 | 1.16 ± 0.14 | – | 0.981 ± 0.12 | – | 0.853 ± 0.1 | 0.749 ± 0.09
101.3 kPa, x1 = 0.7164 | 1.125 ± 0.14 | – | 0.965 ± 0.12 | – | 0.84 ± 0.1 | 0.738 ± 0.089
101.3 kPa, x1 = 0.8783 | 1.099 ± 0.13 | – | 0.943 ± 0.11 | – | 0.822 ± 0.099 | 0.724 ± 0.087

O=C(O)C(O)C(O)C(=O)O (stereo unspecified) + O
viscosity, 100 kPa
Details | 298.15 K | 303.15 K | 308.15 K | 313.15 K | 318.15 K
x1 = 0.003486 | 0.9322 ± 0.019 mPa·s and 0.9322 ± 0.0083 mPa·s | 0.8367 ± 0.017 mPa·s and 0.8367 ± 0.0075 mPa·s | 0.7533 ± 0.016 mPa·s and 0.7533 ± 0.0068 mPa·s | 0.6829 ± 0.014 mPa·s and 0.6829 ± 0.0063 mPa·s | 0.6209 ± 0.013 mPa·s and 0.6209 ± 0.0059 mPa·s
x1 = 0.006751 | 0.9765 ± 0.02 mPa·s and 0.9765 ± 0.0086 mPa·s | 0.8735 ± 0.018 mPa·s and 0.8735 ± 0.0078 mPa·s | 0.7864 ± 0.016 mPa·s and 0.7864 ± 0.0071 mPa·s | 0.7098 ± 0.015 mPa·s and 0.7098 ± 0.0065 mPa·s | 0.6435 ± 0.013 mPa·s and 0.6435 ± 0.006 mPa·s
x1 = 0.009818 | 1.038 ± 0.022 mPa·s and 1.038 ± 0.0092 mPa·s | 0.9206 ± 0.019 mPa·s and 0.9206 ± 0.0082 mPa·s | 0.8235 ± 0.017 mPa·s and 0.8235 ± 0.0074 mPa·s | 0.7408 ± 0.015 mPa·s and 0.7408 ± 0.0068 mPa·s | 0.6707 ± 0.014 mPa·s and 0.6707 ± 0.0063 mPa·s
x1 = 0.0127 | 1.088 ± 0.023 mPa·s and 1.088 ± 0.0096 mPa·s | 0.9696 ± 0.02 mPa·s and 0.9696 ± 0.0086 mPa·s | 0.8645 ± 0.018 mPa·s and 0.8645 ± 0.0078 mPa·s | 0.7756 ± 0.016 mPa·s and 0.7756 ± 0.0071 mPa·s | 0.6996 ± 0.015 mPa·s and 0.6996 ± 0.0065 mPa·s

CC1COC(=O)O1 (stereo unspecified) + CCCCCCO
Details | viscosity [mPa·s]
298 K, 101.3 kPa, x1 = 0.0204 | 4.601 ± 0.03
298 K, 101.3 kPa, x1 = 0.0408 | 4.607 ± 0.03
298 K, 101.3 kPa, x1 = 0.0606 | 4.612 ± 0.03
298 K, 101.3 kPa, x1 = 0.0808 | 4.612 ± 0.03
298 K, 101.3 kPa, x1 = 0.1003 | 4.609 ± 0.03
298 K, 101.3 kPa, x1 = 0.2005 | 4.548 ± 0.029
298 K, 101.3 kPa, x1 = 0.3005 | 4.406 ± 0.028
298 K, 101.3 kPa, x1 = 0.4004 | 4.191 ± 0.027
298 K, 101.3 kPa, x1 = 0.5001 | 3.912 ± 0.025
298 K, 101.3 kPa, x1 = 0.6002 | 3.586 ± 0.023
298 K, 101.3 kPa, x1 = 0.7001 | 3.228 ± 0.021
298 K, 101.3 kPa, x1 = 0.8001 | 2.854 ± 0.018
298 K, 101.3 kPa, x1 = 0.9 | 2.536 ± 0.016
298.15 K, 101 kPa, x1 = 0.0254 | 4.523 ± 0.027
298.15 K, 101 kPa, x1 = 0.0901 | 4.346 ± 0.026
298.15 K, 101 kPa, x1 = 0.1722 | 4.13 ± 0.025
298.15 K, 101 kPa, x1 = 0.2303 | 3.984 ± 0.024
298.15 K, 101 kPa, x1 = 0.3087 | 3.796 ± 0.023
298.15 K, 101 kPa, x1 = 0.3846 | 3.621 ± 0.022
298.15 K, 101 kPa, x1 = 0.4521 | 3.473 ± 0.021
298.15 K, 101 kPa, x1 = 0.5332 | 3.303 ± 0.02
298.15 K, 101 kPa, x1 = 0.6124 | 3.145 ± 0.019
298.15 K, 101 kPa, x1 = 0.7005 | 2.978 ± 0.018
298.15 K, 101 kPa, x1 = 0.7883 | 2.821 ± 0.017
298.15 K, 101 kPa, x1 = 0.8455 | 2.722 ± 0.017
298.15 K, 101 kPa, x1 = 0.9112 | 2.614 ± 0.016
298.15 K, 101 kPa, x1 = 0.977 | 2.509 ± 0.016

CC(C)CC(=O)O + O
viscosity [mPa·s], 101.33 kPa
Details | 293.15 K | 313.15 K
x1 = 0.0036 | 1.106 ± 0.011 | 0.724 ± 0.0072
x1 = 0.0073 | 1.161 ± 0.012 | 0.742 ± 0.0074
